From publication PMC9354243, “The Role of Tryptophan in π Interactions in Proteins: An Experimental Approach” (Journal of the American Chemical Society, 2022)

Tests used:
LmrR = molecular target: LmrR; set-up: method as in Takeuchi et al. (SI ref 3, main ref 21); conditions: 25 °C, SPR, ref Takeuchi et al. (SI ref 3, main ref 21); cited from earlier work
[1] = molecular target: T1, RibU W97Y labeled with 5,7diFW (Lactococcus lactis subsp. cremoris, UniProt D8KIE9, W97Y); assay: Fluorescence titration of RibU with RBF, 5,7diFW variant; type: binding
T1 construct: His10; made in house; host or cells: Lactococcus lactis Trp auxotroph NZ9000-trp with pMG36e-trpRS
Experimental: (§1) Fluorescence titration experiments of the different RibU constructs with RBF at 20 °C allowed estimation of the impact of W68 fluorination or 5-methylation on the binding affinity (Figure 3 and Table 5).
(§2) Figure 3 Titration of Trp analog labeled RibU W97Y proteins with RBF. The RBF fluorescence was measured at the indicated RBF concentrations in the absence (triangles) or presence (dots) of the W97Y RibU variant (see insets). The difference between these two signals were calculated to build the titration curve. This curve was used to compute the RBF Kd (see Experimental Section in the Supporting Information). […]
(§3) Binding assays – Fluorescence titrations of RibU with RBF.
(§4) The concentration of the riboflavin stock was established using a Jasco V-650 spectrophotometer with an ε435 of 12600 M-1.cm-1 The concentration of RibU-His was calculated using a Nanodrop (Thermo […]
(§5) Riboflavin was excited at 435 nm and emission was recorded between 450 nm and 700 nm using a FluoroLog 322 Spectrofluorometer (Jobin Yvon). […] Titration experiments were performed in a 1 mL quartz cuvette at 20 °C as described.13 In brief, purified and desalted RibU protein in gel filtration buffer was titrated with RBF and after each addition the emission spectrum was recorded twice, corrected for buffer emission and instrument response and integrated. […]

RibU = molecular target: RibU; set-up: method as in PMID 17289680; conditions: cited from earlier work
[2] = molecular target: T2, RibU W97Y labeled with 5,6,7triFW (Lactococcus lactis subsp. cremoris, UniProt D8KIE9, W97Y); assay: Fluorescence titration of RibU with RBF, 5,6,7triFW variant; type: binding
T2 construct: His10; made in house; host or cells: Lactococcus lactis Trp auxotroph NZ9000-trp with pMG36e-trpRS
Experimental: as §1, §2, §3, §4, §5

RibU W97Y [3] = assay: Fluorescence titration of RibU with RBF, natural Trp (W); type: binding, Lactococcus lactis; conditions: extrapolation to RibU labeled with tetrafluoroTrp
Experimental: as §1
(§6) Figure 3 Titration of Trp analog labeled RibU W97Y proteins with RBF. The RBF fluorescence was measured at the indicated RBF concentrations in the absence (triangles) or presence (dots) of the W97Y RibU variant (see insets). The difference between these two signals were calculated to build the titration curve. This curve was used to compute the RBF Kd (see Experimental Section in the Supporting Information). Panels from left to right present the results for RibU W97Y, labeled with 5MeW, 5FW, 5,7diFW, and 5,6,7triFW, respectively.
as §3, §4
(§7) Riboflavin was excited at 435 nm and emission was recorded between 450 nm and 700 nm using a FluoroLog 322 Spectrofluorometer (Jobin Yvon). The excitation and emission s lits were set at 1.1 nm and 3.5 nm, respectively. Titration experiments were performed in a 1 mL quartz cuvette at 20 °C as described.13 In brief, purified and desalted RibU protein in gel filtration buffer was titrated with RBF and after each addition the emission spectrum was recorded twice, corrected for buffer emission and instrument response and integrated. The integrated emission intensities were corrected for dilution and compared to the integrated emission of riboflavin collected under these conditions in the absence […]
(§8) The Kd of RBF was derived by first determining the difference in fluorescence signal between the blan k titration with only the gel filtration buffer and the titration using the protein RibU -His in buffer. The obtained curve was fitted using equation I and the program OriginLab16 with n = number of binding sites, X = total RibU concentration, and S = maximal fluorescence signal in A.U. […]

RibU W97Y [4] = molecular target: T3, RibU W97Y (Lactococcus lactis subsp. cremoris, UniProt D8KIE9, W97Y); assay: as above; type: binding
T3 construct: His10; made in house; host or cells: Lactococcus lactis Trp auxotroph NZ9000-trp with pMG36e-trpRS
Experimental: as §1, §6, §3, §4, §7, §8

[5] = molecular target: T4, RibU W97Y labeled with 5FW (Lactococcus lactis subsp. cremoris, UniProt D8KIE9, W97Y); assay: Fluorescence titration of RibU with RBF, 5FW variant; type: binding
T4 construct: His10; made in house; host or cells: Lactococcus lactis Trp auxotroph NZ9000-trp with pMG36e-trpRS
Experimental: as §1, §2, §3, §4, §5

T2 sequence (D8KIE9 whole entry W97Y): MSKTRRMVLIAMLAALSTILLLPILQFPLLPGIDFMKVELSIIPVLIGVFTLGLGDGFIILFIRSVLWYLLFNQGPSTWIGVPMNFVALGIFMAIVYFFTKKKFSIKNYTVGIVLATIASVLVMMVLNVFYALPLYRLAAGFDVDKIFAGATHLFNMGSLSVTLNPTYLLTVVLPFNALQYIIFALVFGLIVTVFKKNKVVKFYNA
T3 sequence (D8KIE9 whole entry W97Y): as above
T1 sequence (D8KIE9 whole entry W97Y): as above
T4 sequence (D8KIE9 whole entry W97Y): as above

COc1cccc2c1C(=O)c1c(O)c3c(c(O)c1C2=O)C[C@@](O)(C(C)=O)C[C@@H]3O[C@H]1C[C@H](N)[C@H](O)[C@H](C)O1 [Dau, Daunomycin]
Kd (LmrR): 350 nM

Cc1cc2nc3c(=O)[nH]c(=O)nc-3n(C[C@H](O)[C@H](O)[C@H](O)CO)c2cc1C [RBF, riboflavin]
Kd [1]: 8.2 ± 0.9 nM | Kd (RibU): ~1 nM | Kd [2]: 24.9 ± 2.7 nM | Fold lowering of the affinity by progressive fluorination of W68 ([2]; 20 °C, up to three fluoro-atoms introduced): 15 fold | Lowering of ΔG for RBF binding (RibU W97Y [3]): ~8 kJ/mol | Kd (RibU W97Y [4]): 1.8 ± 0.8 nM | Electrostatic contribution of W68 as share of total RBF binding energy (RibU W97Y [4]; RibU containing natural Trp): 15–20% | Kd [5]: 5.4 ± 1 nM
